# Test results as given in ChEMBL document CHEMBL4828751, “Discovery of novel tubulin/HDAC dual-targeting inhibitors with strong antitumor and antiangiogenic potency” (Eur J Med Chem, 2021).
# The source made the active and inactive calls. The rule behind the calls is not given here.
# Key:
# [1] = system: U-937; experiment: Antiproliferative activity against human U-937 cells assessed as cell growth inhibition after 72 hrs by CCK8 assay; format: functional, cell-based; conditions: U-937, 72 h
# [2] = system: MGC-803; experiment: Antiproliferative activity against human MGC-803 cells assessed as cell growth inhibition after 72 hrs by SRB assay; format: functional, cell-based; conditions: MGC-803, 72 h
# [3] = system: HeLa; experiment: Antiproliferative activity against human HeLa cells assessed as cell growth inhibition after 72 hrs by SRB assay; format: functional, cell-based
# [4] = system: MGC-803; experiment: Induction of cell cycle arrest in human MGC-803 cells assessed as accumulation at G2/M phase at 2 nM incubated for 24 hrs by propidium iodide staining based flow cytometry (reference value: 28.59 %); format: functional
# [5] = system: MGC-803; experiment: Induction of cell cycle arrest in human MGC-803 cells assessed as accumulation at S phase at 2 nM incubated for 24 hrs by propidium iodide staining based flow cytometry (Rvb =31.51 %); format: functional
# [6] = system: MGC-803; experiment: Induction of cell cycle arrest in human MGC-803 cells assessed as accumulation at G1 phase at 2 nM incubated for 24 hrs by propidium iodide staining based flow cytometry (Rvb =39.64 %); format: functional
# [7] = system: MGC-803; experiment: Induction of apoptosis in human MGC-803 cells assessed as early apoptotic cells at 2 nM measured after 48 hrs by Annexin V-APC/PI double staining based flow cytometry assay (reference value: 2.42 %); format: functional, cell-based
# [8] = system: MGC-803; experiment: Induction of apoptosis in human MGC-803 cells assessed as late apoptotic cells at 2 nM measured after 48 hrs by Annexin V-APC/PI double staining based flow cytometry assay (reference value: 3.62 %); format: functional, cell-based
# [9] = system: MGC-803; experiment: Induction of apoptosis in human MGC-803 cells assessed as necrotic cells at 2 nM measured after 48 hrs by Annexin V-APC/PI double staining based flow cytometry assay (reference value: 0.44%); format: functional, cell-based
# [10] = system: MGC-803; experiment: Induction of apoptosis in human MGC-803 cells assessed as viable cells at 2 nM measured after 48 hrs by Annexin V-APC/PI double staining based flow cytometry assay (Rvb =93.5 %); format: functional, cell-based
smiles,measurement,setting,value
COc1ccc(/C=C\c2cc(OC)c(OC)c(OC)c2)cc1O [COMBRETASTATIN A4],IC50,[1],1 nM
same,IC50,[2],2 nM
same,IC50,[3],9 nM
same,Activity,[4],Dose-Dependent Effect
same,Activity,[4]; record 2,28.25%
same,Activity,[5],31.58%
same,Activity,[6],40.88%
same,Activity,[7],Active
same,Activity,[8],Active
same,Activity,[9],Active
same,Activity,[10],Active
